In publication PMC11457037 (Journal of medicinal chemistry, 2023):

Tested on: EV-D68 US/MO/14-18947
Experiment: CPE assay with EV-D68 US/MO/14-18947 in R.D. cells
Assay type: cell-based, Enterovirus D68
Details: CPE assay EV-D68 US/MO/14-18947

Row | SMILES | antiviral activity, comparison in words
1 | COC[C@H](NC(=O)[C@@H]1[C@H]2CCC[C@H]2CN1C(=O)[C@@H](NC(=O)CC12CC3CC(CC(C3)C1)C2)C(C)(C)C)C(=O)C(=O)NC1CC1 [Jun11672, (1S,3aR,6aS)-2-((S)-2-(2-((3S,5S,7S)-adamantan-1-yl)acetamido)-3,3-dimethylbutanoyl)-N-((S)-4-(cyclopropylamino)-1-methoxy-3,4-dioxobutan-2-yl)octahydrocyclopenta[c]pyrrole-1-carboxamide] | not active as Jun8861

Same assay, conditions: Enterovirus D, EVD68, RD, read-out: Antiviral EC50

Row | SMILES | EC50 [nM]
2 | CCC[C@H](NC(=O)[C@@H]1[C@H]2CCC[C@H]2CN1C(=O)[C@@H](NC(=O)CC1CCCC1)C(C)(C)C)C(=O)C(=O)NC1CC1 [Jun971, (1S,3aR,6aS)-2-((S)-2-(2-cyclopentylacetamido)-3,3-dimethylbutanoyl)-N-((S)-1-(cyclopropylamino)-1,2-dioxohexan-3-yl)octahydrocyclopenta[c]pyrrole-1-carboxamide] | 160 to 750
3 | CCC[C@H](NC(=O)[C@@H]1[C@H]2CCC[C@H]2CN1C(=O)[C@@H](NC(=O)CC1CCC(F)(F)CC1)C(C)(C)C)C(=O)C(=O)NC1CC1 [Jun975, (1S,3aR,6aS)-N-((S)-1-(cyclopropylamino)-1,2-dioxohexan-3-yl)-2-((S)-2-(2-(4,4-difluorocyclohexyl)acetamido)-3,3-dimethylbutanoyl)octahydrocyclopenta[c]pyrrole-1-carboxamide] | 160 to 750
4 | CCC[C@H](NC(=O)[C@@H]1[C@H]2CCC[C@H]2CN1C(=O)[C@@H](NC(=O)CC1CCCCC1)C(C)(C)C)C(=O)C(=O)NC1CC1 [Jun8814, (1S,3aR,6aS)-2-((S)-2-(2-cyclohexylacetamido)-3,3-dimethylbutanoyl)-N-((S)-1-(cyclopropylamino)-1,2-dioxohexan-3-yl)octahydrocyclopenta[c]pyrrole-1-carboxamide] | 160 to 750

Target: T1, EV-D68 2A^pro (Enterovirus D68, UniProt A0A097BW19)
Experiment: FRET-based enzymatic assay
Assay type: biochemical
Details: not given

Row | SMILES | enzymatic inhibition, comparison in words
5 | CCC[C@H](NC(=O)[C@@H]1[C@H]2CCC[C@H]2CN1C(=O)[C@@H](NC(=O)NC12CC3CC(CC(C3)C1)C2)C(C)(C)C)C(=O)C(=O)NC1CC1 [Jun1023, (1S)-2-((S)-2-(3-((3R,5R,7R)-adamantan-1-yl)ureido)-3,3-dimethylbutanoyl)-N-((S)-1-(cyclopropylamino)-1,2-dioxohexan-3-yl)octahydrocyclopenta[c]pyrrole-1-carboxamide] | reduced enzymatic inhibition
6 | CCC[C@H](NC(=O)[C@@H]1[C@H]2CCC[C@H]2CN1C(=O)[C@@H](NC(=O)OCc1ccccc1)C(C)(C)C)C(=O)C(=O)NC1CC1 [Jun7426, Benzyl ((S)-1-((1S,3aR,6aS)-1-(((S)-1-(cyclopropylamino)-1,2-dioxohexan-3-yl)carbamoyl)hexahydrocyclopenta[c]pyrrol-2(1H)-yl)-3,3-dimethyl-1-oxobutan-2-yl)carbamate] | reduced enzymatic inhibition and antiviral activity compared to telaprevir
7 | CCC[C@H](NC(=O)[C@@H]1[C@H]2CCC[C@H]2CN1C(=O)[C@@H](NC(=O)Cc1ccccc1)C(C)(C)C)C(=O)C(=O)NC1CC1 [Jun8681, (1S,3aR,6aS)-N-((S)-1-(cyclopropylamino)-1,2-dioxohexan-3-yl)-2-((S)-3,3-dimethyl-2-(2-phenylacetamido)butanoyl)octahydrocyclopenta[c]pyrrole-1-carboxamide] | reduced enzymatic inhibition and antiviral activity compared to telaprevir
8 | CCC[C@H](NC(=O)[C@@H]1[C@H]2CCC[C@H]2CN1C(=O)[C@@H](NC(=O)/C=C/c1ccccc1)C(C)(C)C)C(=O)C(=O)NC1CC1 [Jun8813, (1S,3aR,6aS)-2-((S)-2-cinnamamido-3,3-dimethylbutanoyl)-N-((S)-1-(cyclopropylamino)-1,2-dioxohexan-3-yl)octahydrocyclopenta[c]pyrrole-1-carboxamide] | reduced enzymatic inhibition and antiviral activity compared to telaprevir
9 | CC(C)[C@H](NC(=O)[C@@H]1[C@H]2CCC[C@H]2CN1C(=O)[C@@H](NC(=O)CC12CC3CC(CC(C3)C1)C2)C(C)(C)C)C(=O)C(=O)NC1CC1 [Jun11718, (1S,3aR,6aS)-2-((S)-2-(2-((3S,5S,7S)-adamantan-1-yl)acetamido)-3,3-dimethylbutanoyl)-N-((S)-1-(cyclopropylamino)-4-methyl-1,2-dioxopentan-3-yl)octahydrocyclopenta[c]pyrrole-1-carboxamide] | comparable enzymatic inhibition and antiviral activity as Jun8861
10 | CC(C)(C)[C@H](NC(=O)CC12CC3CC(CC(C3)C1)C2)C(=O)N1C[C@@H]2CCC[C@@H]2[C@H]1C(=O)N[C@@H](Cc1ccc(F)cc1)C(=O)C(=O)NC1CC1 [Jun11763, (1S,3aR,6aS)-2-((S)-2-(2-((3S,5S,7S)-adamantan-1-yl)acetamido)-3,3-dimethylbutanoyl)-N-((S)-4-(cyclopropylamino)-1-(4-fluorophenyl)-3,4-dioxobutan-2-yl)octahydrocyclo-penta[c]pyrrole-1-carboxamide] | comparable enzymatic inhibition and antiviral activity as Jun11385
11 | CC(C)(C)[C@H](NC(=O)CC12CC3CC(CC(C3)C1)C2)C(=O)N1C[C@@H]2CCC[C@@H]2[C@H]1C(=O)NC1(C(=O)C(=O)NC2CC2)CCCCC1 [Jun11805, (1S,3aR,6aS)-2-((S)-2-(2-((3S,5S,7S)-adamantan-1-yl)acetamido)-3,3-dimethylbutanoyl)-N-(1-(2-(cyclopropylamino)-2-oxoacetyl)cyclohexyl)octahydrocyclopenta[c]pyrrole-1-carboxamide] | less active compared to Jun11762
12 | CC(C)(C)[C@H](NC(=O)CC12CC3CC(CC(C3)C1)C2)C(=O)N1C[C@@H]2CCC[C@@H]2[C@H]1C(=O)NC1(C(=O)C(=O)NC2CC2)CCC1 [Jun11806, (1S,3aR,6aS)-2-((S)-2-(2-((3S,5S,7S)-adamantan-1-yl)acetamido)-3,3-dimethylbutanoyl)-N-(1-(2-(cyclopropylamino)-2 oxoacetyl)cyclobutyl)octahydrocyclopenta[c]pyrrole-1-carboxamide] | less active compared to Jun11762
13 | CC(C)(C)[C@H](NC(=O)CC12CC3CC(CC(C3)C1)C2)C(=O)N1C[C@@H]2CCC[C@@H]2[C@H]1C(=O)N[C@H](C(=O)C(=O)NC1CC1)C1CCCC1 [Jun11808, (1S,3aR,6aS)-2-((S)-2-(2-((3S,5S,7S)-adamantan-1-yl)acetamido)-3,3-dimethylbutanoyl)-N-((S)-1-cyclopentyl-3-(cyclopropylamino)-2,3-dioxopropyl)octahydrocyclopenta[c]pyrrole-1-carboxamide] | comparable enzymatic inhibition and antiviral activity as Jun8861
14 | CC(C)(C)[C@H](NC(=O)CC12CC3CC(CC(C3)C1)C2)C(=O)N1C[C@@H]2CCC[C@@H]2[C@H]1C(=O)N[C@H](C(=O)C(=O)NC1CC1)c1ccccc1 [Jun11817, (1S,3aR,6aS)-2-((S)-2-(2-((3S,5S,7S)-adamantan-1-yl)acetamido)-3,3-dimethylbutanoyl)-N-((S)-3-(cyclopropylamino)-2,3-dioxo-1-phenylpropyl)octahydrocyclopenta[c]pyrrole-1-carboxamide] | less active
15 | CC(C)(C)[C@H](NC(=O)CC12CC3CC(CC(C3)C1)C2)C(=O)N1C[C@@H]2CCC[C@@H]2[C@H]1C(=O)N[C@H](C(=O)C(=O)NC1CC1)c1ccc(F)cc1 [Jun11861, (1S,3aR,6aS)-2-((S)-2-(2-((3S,5S,7S)-adamantan-1-yl)acetamido)-3,3-dimethylbutanoyl)-N-((S)-3-(cyclopropylamino)-1-(4-fluorophenyl)-2,3-dioxopropyl)octahydrocyclopenta[c]pyrrole-1-carboxamide] | less active
16 | CC(C)(C)[C@H](NC(=O)CC12CC3CC(CC(C3)C1)C2)C(=O)N1C[C@@H]2CCC[C@@H]2[C@H]1C(=O)N[C@@H](Cc1c[nH]c2ccccc12)C(=O)C(=O)NC1CC1 [Jun11862, (1S,3aR,6aS)-2-((S)-2-(2-((3S,5S,7S)-adamantan-1-yl)acetamido)-3,3-dimethylbutanoyl)-N-((S)-4-(cyclopropylamino)-1-(1H-indol-3-yl)-3,4-dioxobutan-2-yl)octahydrocyclopenta[c]pyrrole-1-carboxamide] | comparable enzymatic inhibition and antiviral activity as Jun11385

Tested on: EV-D68
Experiment: not given
Details: respiratory and neurological disease mouse models; cited from earlier work

Row | SMILES | therapeutic efficacy in EV-D68 mouse models
17 | CC(C)S(=O)(=O)n1c(N)nc2ccc(/C(=N/O)c3ccccc3)cc21 [enviroxime] | none of these antivirals showed therapeutic efficacy
18 | CCOC(=O)c1ccc(OCCC2CCN(c3ccc(C)nn3)CC2)cc1 [pirodavir] | none of these antivirals showed therapeutic efficacy
19 | Cc1cc(CCCOc2c(C)cc(-c3noc(C(F)(F)F)n3)cc2C)on1 [pleconaril] | none of these antivirals showed therapeutic efficacy
20 | NC(=O)c1ncn([C@@H]2O[C@H](CO)[C@@H](O)[C@H]2O)n1 [ribavirin] | none of these antivirals showed therapeutic efficacy
21 | CCOC(=O)/C=C/[C@H](C[C@@H]1CCNC1=O)NC(=O)[C@@H](CC(=O)[C@@H](NC(=O)c1cc(C)on1)C(C)C)Cc1ccc(F)cc1 [rupintrivir] | none of these antivirals showed therapeutic efficacy

Target: T1, EV-D68 2A^pro
Experiment: Enzyme kinetic studies
Assay type: biochemical
Details: from fitting of kinetic curves

Row | SMILES | Mode of inhibition of EV-D68 2A^pro
22 | CC(C)(C)[C@H](NC(=O)CC12CC3CC(CC(C3)C1)C2)C(=O)N1C[C@@H]2CCC[C@@H]2[C@H]1C(=O)N[C@H](C=O)Cc1ccc(F)cc1 [Jun11707, (1S,3aR,6aS)-2-((S)-2-(2-((3S,5S,7S)-adamantan-1-yl)acetamido)-3,3-dimethylbutanoyl)-N-((S)-1-(4-fluorophenyl)-3-oxopropan-2-yl)octahydrocyclopenta[c]pyrrole-1-carboxamide] | reversible binding
23 | CC(C)(C)[C@H](NC(=O)CC12CC3CC(CC(C3)C1)C2)C(=O)N1C[C@@H]2CCC[C@@H]2[C@H]1C(=O)N[C@H](C(=O)C(=O)NC1CC1)C1CCCC1 [Jun11808, (1S,3aR,6aS)-2-((S)-2-(2-((3S,5S,7S)-adamantan-1-yl)acetamido)-3,3-dimethylbutanoyl)-N-((S)-1-cyclopentyl-3-(cyclopropylamino)-2,3-dioxopropyl)octahydrocyclopenta[c]pyrrole-1-carboxamide] | reversible binding
